Test results reported in ChEMBL document CHEMBL5154648, “Antitumor activity of novel POLA1-HDAC11 dual inhibitors” (Eur J Med Chem, 2022).
Active and inactive are the calls of the source. No cut-off for these calls is given here.

Legend:
NCI-H460 [1] = test: Antiproliferative activity against human NCI-H460 cells incubated for 24 hrs followed by incubating in drug-free medium for 48 hrs and measured by SRB assay; assay type: functional, cell-based
[2] = Antiproliferative activity against human H460-R9A cells incubated for 24 hrs followed by incubating in drug-free medium for 48 hrs and measured by SRB assay; assay type: functional, cell-based
[3] = Resistance index, ratio of IC50 for human NCI-H460 cells to IC50 for H460-R9A cells; assay type: functional
H460-R9A = test: Antiproliferative activity against human H460-R9A cells at 3.75 to 60 uM after 72 hrs by MTT assay; assay type: functional, cell-based; settings: dose 3.75-60 µM
[4] = Antiproliferative activity against multi-drug resistant human A2780-DX cells incubated for 24 hrs followed by incubating in drug-free medium for 48 hrs and measured by SRB assay; assay type: functional, cell-based
L-428 = test: Antiproliferative activity against human L-428 cells incubated for 24 hrs followed by incubating in drug-free medium for 48 hrs and measured by SRB assay; assay type: functional, cell-based
[5] = target: T1, DNA polymerase alpha catalytic subunit (Homo sapiens) (UniProt P09884); test: Inhibition of POLA1 in human NCI-H460 cells at 7.4 uM assessed as upregulation of p21 expression and measured by Western blot analysis; assay type: cell-based
T1 sequence (whole entry): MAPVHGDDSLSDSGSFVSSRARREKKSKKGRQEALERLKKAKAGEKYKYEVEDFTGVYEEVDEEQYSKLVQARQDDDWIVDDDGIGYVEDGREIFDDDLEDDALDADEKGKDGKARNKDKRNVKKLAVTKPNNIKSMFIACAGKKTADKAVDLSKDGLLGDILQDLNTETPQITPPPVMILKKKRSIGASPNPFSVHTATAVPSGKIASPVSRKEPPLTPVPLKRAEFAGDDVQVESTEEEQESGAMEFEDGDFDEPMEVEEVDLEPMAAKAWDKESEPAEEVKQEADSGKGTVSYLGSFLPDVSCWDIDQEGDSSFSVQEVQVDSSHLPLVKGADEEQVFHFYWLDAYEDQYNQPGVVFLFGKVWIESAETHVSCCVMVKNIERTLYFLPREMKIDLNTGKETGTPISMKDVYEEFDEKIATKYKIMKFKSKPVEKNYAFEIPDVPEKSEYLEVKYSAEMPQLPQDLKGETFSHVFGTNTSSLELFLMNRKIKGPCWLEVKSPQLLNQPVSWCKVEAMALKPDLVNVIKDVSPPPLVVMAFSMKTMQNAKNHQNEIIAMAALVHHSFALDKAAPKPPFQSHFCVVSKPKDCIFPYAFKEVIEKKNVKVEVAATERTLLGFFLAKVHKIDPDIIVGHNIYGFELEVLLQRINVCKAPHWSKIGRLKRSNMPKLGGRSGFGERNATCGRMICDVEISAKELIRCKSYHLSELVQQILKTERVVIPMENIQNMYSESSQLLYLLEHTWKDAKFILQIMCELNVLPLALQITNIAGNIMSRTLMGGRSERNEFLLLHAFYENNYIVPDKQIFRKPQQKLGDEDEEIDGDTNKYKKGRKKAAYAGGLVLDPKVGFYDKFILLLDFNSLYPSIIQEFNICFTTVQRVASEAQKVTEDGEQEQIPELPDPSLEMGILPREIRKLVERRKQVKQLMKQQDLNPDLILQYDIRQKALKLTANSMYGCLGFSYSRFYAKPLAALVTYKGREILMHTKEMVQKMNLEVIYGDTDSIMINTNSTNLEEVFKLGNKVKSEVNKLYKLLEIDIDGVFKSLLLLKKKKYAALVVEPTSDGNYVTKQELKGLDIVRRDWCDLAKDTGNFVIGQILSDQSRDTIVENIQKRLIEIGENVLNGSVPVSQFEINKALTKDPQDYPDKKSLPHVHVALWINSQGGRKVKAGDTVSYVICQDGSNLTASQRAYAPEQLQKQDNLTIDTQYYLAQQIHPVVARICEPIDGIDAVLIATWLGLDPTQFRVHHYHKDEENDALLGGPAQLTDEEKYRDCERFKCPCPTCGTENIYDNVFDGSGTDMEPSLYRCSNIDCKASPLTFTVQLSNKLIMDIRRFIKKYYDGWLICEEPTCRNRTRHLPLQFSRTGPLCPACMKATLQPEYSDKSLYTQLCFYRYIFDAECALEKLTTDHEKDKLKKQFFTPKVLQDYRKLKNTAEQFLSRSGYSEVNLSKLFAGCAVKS

NCI-H460 [6] = test: Induction of DNA damage in human NCI-H460 cells at 7.4 uM assessed as increase in p-H2AX levels and measured by Western blot analysis; assay type: functional, cell-based
NCI-H460 [7] = test: Antiproliferative activity against human NCI-H460 cells at 7.4 uM assessed as reduction in p-ERK1/2 level and measured by Western blot analysis; assay type: functional, cell-based
NCI-H460 [8] = test: Antiproliferative activity against human NCI-H460 cells at 7.4 uM assessed as reduction in PIN1 level and measured by Western blot analysis; assay type: functional, cell-based
NCI-H460 [9] = test: Induction of cell cycle arrest in human NCI-H460 cells assessed as accumulation of cells at sub-G1 phase at 4.2 uM after 72 hrs by flow cytometry (reference value: 1.1%); assay type: functional
NCI-H460 [10] = test: Induction of cell cycle arrest in human NCI-H460 cells assessed as accumulation of cells at G0/1 phase at 4.2 uM after 72 hrs by flow cytometry (reference value: 46.8%); assay type: functional
NCI-H460 [11] = test: Induction of cell cycle arrest in human NCI-H460 cells assessed as accumulation of cells at S phase at 4.2 uM after 72 hrs by flow cytometry (reference value: 32.1%); assay type: functional
NCI-H460 [12] = test: Induction of cell cycle arrest in human NCI-H460 cells assessed as accumulation of cells at G2/M phase at 4.2 uM after 72 hrs by flow cytometry (reference value: 21.1%); assay type: functional
[13] = Induction of cell cycle arrest in human H460-R9A cells assessed as accumulation of cells at sub-G1 phase at 1.9 uM after 72 hrs by flow cytometry (reference value: 1.5%); assay type: functional
[14] = Induction of cell cycle arrest in human H460-R9A cells assessed as accumulation of cells at G0/1 phase at 1.9 uM after 72 hrs by flow cytometry (reference value: 50.1%); assay type: functional
[15] = Induction of cell cycle arrest in human H460-R9A cells assessed as accumulation of cells at S phase at 1.9 uM after 72 hrs by flow cytometry (reference value: 34.5%); assay type: functional
[16] = Induction of cell cycle arrest in human H460-R9A cells assessed as accumulation of cells at G2/M phase at 1.9 uM after 72 hrs by flow cytometry (reference value: 15.4%); assay type: functional
A2780 = test: Antiproliferative activity against human A2780 cells incubated for 24 hrs followed by incubating in drug-free medium for 48 hrs and measured by SRB assay; assay type: functional, cell-based
[17] = Resistance index, ratio of IC50 for human A2780 cells to IC50 for A2780-DX cells; assay type: functional

| SMILES | IC50 (NCI-H460 [1]) | IC50 (A2780) | IC50 [2] | Ratio IC50 [3] | IC50 [4] | Ratio IC50 [17] | also measured |
| --- | --- | --- | --- | --- | --- | --- | --- |
| CCCCCCCCCCCCCCCCNNC(=O)c1cccs1 |  |  |  |  |  |  | Activity (H460-R9A): Active |
| O=C(CCCCCCC(=O)Nc1ccccc1)NO [VORINOSTAT] |  |  |  |  | 33 µM |  | IC50 (L-428): 2.3 µM; inhibition [5]: Active; Activity (NCI-H460 [6]): Active; Activity (NCI-H460 [7]): Active; Activity (NCI-H460 [8]): Active; Activity (NCI-H460 [9]): 1.8%; Activity (NCI-H460 [10]): 65.2%; Activity (NCI-H460 [11]): 11.7%; Activity (NCI-H460 [12]): 23.1%; Activity [13]: 2.1%; Activity [14]: 62.2%; Activity [15]: 14.7%; Activity [16]: 21% |
| O=C(O)C=Cc1ccc(-c2ccc(OCCC(=O)NO)c(C34CC5CC(CC(C5)C3)C4)c2)cc1 | 8.3 µM |  | 10.6 µM | 1.3 |  |  |  |
| O=C(O)C=Cc1ccc(-c2ccc(OCC(=O)O)c(C34CC5CC(CC(C5)C3)C4)c2)cc1 | > 10 µM |  | > 10 µM |  |  |  |  |
| O=C(O)C=Cc1ccc(-c2ccc(OCCCCCCCC(=O)NO)c(C34CC5CC(CC(C5)C3)C4)c2)cc1 | 5.5 µM |  | 9.6 µM | 1.7 |  |  |  |
| O=C(O)C=Cc1ccc(-c2ccc(OCCC(=O)O)c(C34CC5CC(CC(C5)C3)C4)c2)cc1 | 10 µM | 10 µM | > 10 µM |  | 23.8 µM | 2.38 |  |

More lines, main results first:

| IC50 (NCI-H460 [1]) | IC50 (A2780) | SMILES | IC50 [2] | Ratio IC50 [3] | IC50 [4] | Ratio IC50 [17] | also measured |
| --- | --- | --- | --- | --- | --- | --- | --- |
| 1.3 µM |  | CC(C)(Oc1ccc(-c2ccc(C=CC(=O)O)cc2)cc1C12CC3CC(CC(C3)C1)C2)C(=O)NO | 7.3 µM | 5.6 |  |  |  |
| 1.7 µM | 4.2 µM | O=C(O)C=Cc1ccc(-c2ccc(OCCCC(=O)NO)c(C34CC5CC(CC(C5)C3)C4)c2)cc1 | 8.3 µM | 4.9 | 3.9 µM | 0.9 |  |
| 1.9 µM | 3.6 µM | O=C(O)C=Cc1ccc(-c2ccc(OCCCCC(=O)NO)c(C34CC5CC(CC(C5)C3)C4)c2)cc1 | 8.6 µM | 4.5 | 6.4 µM | 1.7 |  |
